Results from patent US20230167505A1, “CIRCULATING TUMOR DNA AS A BIOMARKER FOR LEUKEMIA TREATMENT” (Cardiff Oncology, Inc., priority 2020, published 2023).

Tested on: relapsed or refractory (R/R) AML
Test: Phase 1b antileukemic activity: bone marrow evaluation, response by modified International Working Group criteria 2003
Assay type: in vivo, human
Set-up: key to Clinical Response: NR = Non-responder; Responders were defined as patients achieving complete response (BM blasts <5%) with or without count recovery (CR+CRi)
Conditions: for BM % Blasts Log2(C1/C0): end of cycle 1 vs screening
Method: Treatment plan and study design: […] Antileukemic activity: […] Response to treatment was evaluated by the investigator using the modified International Working Group criteria 2003, detailed in Table 2. Antileukemic activity was assessed in all patients evaluable for DLTs.

[1] = 20 patients chosen for ctDNA analysis

## CN1CCN(c2ccc(OC(F)(F)F)c(Nc3ncc4c(n3)-c3c(c(C(N)=O)nn3CCO)CC4)c2)CC1 [onvansertib, 1-(2-hydroxyethyl)-8-{[5-(4-methylpiperazin-1-yl)-2-(trifluoromethoxy)phenyl]amino}-4,5-dihydro-1H-pyrazolo [4,3-h] quinazoline-3-carboxamide]
[1]
  Non-Responders, (%): 70%
  Responders, (%): 30%
LDAC arm
  patients with PR: one
LDAC arm, 12 patients
  patients with ≥50% reduction in bone marrow blasts: 25%
LDAC arm, 15 patients
  CRi rate: 7%
Patient 01-021
  Clinical Response: NR
  BM % Blasts Log2(C1/C0): −0.8625
Patient 01-024
  Clinical Response: NR
  BM % Blasts Log2(C1/C0): −0.3219
Patient 03-037
  Clinical Response: Responder
  BM % Blasts Log2(C1/C0): 0.8301
Patient 05-016
  Clinical Response: NR
  BM % Blasts Log2(C1/C0): 3.0704
Patient 05-030
  Clinical Response: Responder
  BM % Blasts Log2(C1/C0): −2.0000
Patient 05-043
  Clinical Response: NR
  BM % Blasts Log2(C1/C0): −0.4150
Patient 07-009
  Clinical Response: Responder
  BM % Blasts Log2(C1/C0): −0.0468
Patient 07-013
  Clinical Response: NR
Patient 07-018
  Clinical Response: NR
Patient 07-033
  Clinical Response: NR
Patient 07-035
  Clinical Response: Responder
  BM % Blasts Log2(C1/C0): −1.7370
Patient 07-036
  Clinical Response: NR
  BM % Blasts Log2(C1/C0): −1.0000
Patient 08-027
  Clinical Response: NR
  BM % Blasts Log2(C1/C0): −0.1043
Patient 08-058
  Clinical Response: Responder
  BM % Blasts Log2(C1/C0): 0.9329
Patient 09-026
  Clinical Response: NR
  BM % Blasts Log2(C1/C0): 0.3785
Patient 09-032
  Clinical Response: NR
  BM % Blasts Log2(C1/C0): 0.1454
Patient 09-064
  Clinical Response: Responder
  BM % Blasts Log2(C1/C0): −3.9069
Patient 11-019
  Clinical Response: NR
  BM % Blasts Log2(C1/C0): 0.0000
Patient 11-040
  Clinical Response: NR
  BM % Blasts Log2(C1/C0): 0.4021
Patient 12-041
  Clinical Response: NR
  BM % Blasts Log2(C1/C0): 0.6951
Decitabine arm
  median duration of CR/CRi: 5.5 months
  median number of cycles to achieve CR/CRi: 4 cycles
  range of duration of CR/CRi: 1.5-11.5 months
  range of number of cycles to achieve CR/CRi: 1-7 cycles
Decitabine arm (7/21 patients)
  Overall response rate (ORR: CR, CRi, MLFS, PR): 33%
Decitabine arm, 18 patients with evaluable bone marrow biopsy
  patients with ≥50% reduction in bone marrow blasts: 44%
Decitabine arm, Phase 1b
  patients with MLFS: one
  patients with PR: one
Decitabine arm, Phase 1b, 21 evaluable patients, all doses
  CR/CRi rate: 24%
Responders of both arms (n=6)
  median number of cycles to achieve CR/CRi: 3 cycles
  range of number of cycles to achieve CR/CRi: 1-7 cycles
